Test systems include OVCAR-3; LOX IMVI; SNB-19; HCT-15; HT-29; 786-0; SNB-75; A549; SF-268; NCI-H460; RXF 393; NCI/ADR-RES; MDA-N; COLO 205; UACC-62; MOLT-4; EKVX; OVCAR-5; UO-31; CAKI-1.
Experiment in all cases: NCI-60 cell line screen, 48 h

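96-well plates; 48 h exposure; 5 concentrations. Endpoints by linear interpolation between flanking doses. Not reached: highest tested concentration assigned. GI50 = concentration required for 50% inhibition of growth.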 Activity calls are given as the source filed them. Rule as the data show it: active = GI50 up to about 1.1 µM and inactive = higher.

For the compound `CC(C)(C)C1CCC2c3c([nH]c4ccccc34)C3C(=O)N(c4ccc([N+](=O)[O-])cc4)C(=O)C3C2C1` (centres undefined), the GI50 in the assay with OVCAR-3 is 10.7 µM (inactive); with LOX IMVI, 8.34 µM (inactive); in the assay on SNB-19, 22 µM (inactive); with HCT-15, 18.1 µM; in the assay on HT-29, 3.89 µM (inactive); in the assay with 786-0, 5.11 µM (inactive). For the same compound, the GI50 in the assay with SNB-75 is 16.9 µM (inactive); in the assay on A549, 10.8 µM (inactive); in the assay with SF-268, 7.36 µM (inactive); in the assay with NCI-H460, 13.6 µM (inactive); with RXF 393, 10.4 µM (inactive); in the assay on NCI/ADR-RES, 14.9 µM (inactive). For the same compound, the GI50 in the assay with MDA-N was 28.5 µM (inactive); in the assay with COLO 205, 8.71 µM (inactive); in the assay on UACC-62, 3.12 µM (inactive); with MOLT-4 it was 5.28 µM (inactive); in the assay on EKVX it was 25.3 µM (inactive); in the assay with OVCAR-5 it was 25.2 µM (inactive).
For the compound `C[C@@H](c1ccccc1)N(CC#N)[C@H]1CCC[C@]1(O)/C=C/c1ccc2c(c1)OCO2`, the GI50 is > 25 µM (inactive) in the assay with LOX IMVI; > 25 µM (inactive) with SNB-19; more than 25 µM in the assay on HCT-15; > 25 µM (inactive) in the assay with HT-29; > 25 µM (inactive) in the assay with 786-0; > 25 µM (inactive) with SNB-75. Moreover, the GI50 in the assay on UO-31, with A549, in the assay on SF-268, in the assay with NCI-H460, in the assay on RXF 393 and in the assay on NCI/ADR-RES was > 25 µM (inactive) in each case. For the same compound, the GI50 was > 25 µM (inactive) in the assay with MDA-N; > 25 µM (inactive) with COLO 205; 3.59 µM (inactive) with UACC-62; > 25 µM (inactive) with MOLT-4; > 25 µM (inactive) in the assay with EKVX; > 25 µM (inactive) in the assay on OVCAR-5. Moreover, the GI50 in the assay with CAKI-1 is > 25 µM (inactive).
On to `CCc1c(Cc2cccc3ccccc23)n2c(nc1=O)SCC2OCCO` (centres undefined), for which the GI50 with LOX IMVI is 79.3 µM (inactive); in the assay on SNB-19, > 100 µM (inactive); in the assay on HCT-15, 43.5 µM; in the assay on HT-29, 55.3 µM (inactive); in the assay with 786-0 it was > 100 µM (inactive); with SNB-75, > 100 µM (inactive). Further, the GI50 is > 100 µM (inactive) with UO-31; 77.3 µM (inactive) with A549; 55.7 µM (inactive) in the assay on SF-268; > 100 µM (inactive) in the assay on NCI-H460; > 100 µM (inactive) with RXF 393; 81.5 µM (inactive) in the assay with NCI/ADR-RES. Moreover, the GI50 is 40.8 µM (inactive) with MDA-N; > 100 µM (inactive) with COLO 205; 56.5 µM (inactive) with UACC-62; 26.6 µM (inactive) with MOLT-4; 33.7 µM (inactive) in the assay on EKVX; > 100 µM (inactive) in the assay with OVCAR-5. In addition, in the assay with CAKI-1, the GI50 was > 100 µM (inactive).
`CCOC(=O)CC(=O)N(c1ccc(OC)cc1)C(C(=O)OC)c1ccccc1` (centres undefined): the GI50 in the assay with OVCAR-3 was > 100 µM (inactive); with LOX IMVI it was > 100 µM (inactive); in the assay with SNB-19, > 100 µM (inactive); in the assay on HCT-15 it was more than 100 µM; in the assay with HT-29, > 100 µM (inactive); with 786-0, > 100 µM (inactive). Besides, the GI50 with SNB-75 was 61 µM (inactive); in the assay with UO-31, 96.2 µM (inactive); with A549, > 100 µM (inactive); with SF-268, > 100 µM (inactive); with NCI-H460, > 100 µM (inactive); in the assay with NCI/ADR-RES, > 100 µM (inactive). Further, the GI50 in the assay on MDA-N, in the assay with COLO 205, in the assay on UACC-62, with EKVX, in the assay with OVCAR-5 and with CAKI-1 was > 100 µM (inactive) in each case.
For the compound `CCCCOC(=O)c1cc(C(=CCC[C@H]2CC[C@@]3(C)[C@@H](CC[C@@H]4[C@@H]3CC[C@]3(C)[C@@H](C(C)CCCC(C)C)CC[C@@H]43)C2)c2cc(Cl)c(O)c(C(=O)OCCCC)c2)cc(Cl)c1O` (some centres undefined), the GI50 in the assay with OVCAR-3 was > 50 µM (inactive); with LOX IMVI it was > 50 µM (inactive); with SNB-19 it was > 50 µM (inactive); with HCT-15, more than 50 µM; with HT-29, > 50 µM (inactive); in the assay with 786-0, > 50 µM (inactive). For the same compound, the GI50 with SNB-75, with SF-268, with NCI-H460, in the assay with NCI/ADR-RES, with MDA-N and in the assay on COLO 205 was > 50 µM (inactive) in each case. Further, the GI50 with UACC-62 was > 50 µM (inactive); with MOLT-4, > 5 µM (inactive); with EKVX, > 50 µM (inactive); in the assay on CAKI-1 it was > 50 µM (inactive).
As for `CN(/N=C/c1ccccc1O)c1ccc2ccccc2n1`, the GI50 in the assay with OVCAR-3 is 19.5 µM (inactive); in the assay on LOX IMVI it was 30.8 µM (inactive); in the assay with SNB-19, 16.7 µM (inactive); in the assay on HCT-15, 12.5 µM; in the assay on HT-29, 29.8 µM (inactive); in the assay on 786-0, 17.7 µM (inactive). The GI50 was 20.8 µM (inactive) with UO-31; 16.3 µM (inactive) with A549; 22.5 µM (inactive) with SF-268; 22.9 µM (inactive) with NCI-H460; 30.8 µM (inactive) in the assay on RXF 393; 22.4 µM (inactive) in the assay with NCI/ADR-RES. Moreover, the GI50 is 52.2 µM (inactive) in the assay on MDA-N; 56.1 µM (inactive) with COLO 205; 35.2 µM (inactive) with UACC-62; 24 µM (inactive) with MOLT-4; 19.8 µM (inactive) with EKVX; 41.2 µM (inactive) in the assay with OVCAR-5. For the same compound, the GI50 in the assay on CAKI-1 was 33.9 µM (inactive).
With `CC(=O)Oc1c(C)cc2c(c1C)C(C)(C)CN2C(=O)C(C)(C)C`, the GI50 was 25.2 µM (inactive) in the assay on OVCAR-3; > 100 µM (inactive) with LOX IMVI; > 100 µM (inactive) with SNB-19; more than 100 µM in the assay with HCT-15; 33.1 µM (inactive) with HT-29; > 100 µM (inactive) in the assay with 786-0. Moreover, the GI50 in the assay with SNB-75 is 0.504 µM (active); in the assay with UO-31 it was 41.8 µM (inactive); with A549 it was 83.8 µM (inactive); in the assay on SF-268 it was > 100 µM (inactive); in the assay with NCI-H460, > 100 µM (inactive); with RXF 393, 84.9 µM (inactive). Further, the GI50 in the assay on NCI/ADR-RES was 45.3 µM (inactive); with MDA-N, > 100 µM (inactive); with COLO 205 it was 58.1 µM (inactive); in the assay with UACC-62 it was > 100 µM (inactive); in the assay with MOLT-4, 25.4 µM (inactive); with EKVX it was > 100 µM (inactive). Besides, the GI50 with OVCAR-5 is > 100 µM (inactive).
Turning to `O=C(O)c1ccccc1NC(=S)c1ccccc1`, the GI50 with OVCAR-3 was 34.4 µM (inactive); in the assay with LOX IMVI, 30.5 µM (inactive); with SNB-19, 48.5 µM (inactive); in the assay on HCT-15, 30.3 µM; in the assay with HT-29 it was 37.8 µM (inactive); with 786-0 it was 47.4 µM (inactive). For the same compound, the GI50 was 51.8 µM (inactive) with UO-31; 51.3 µM (inactive) in the assay on A549; 64 µM (inactive) with SF-268; 53.2 µM (inactive) with NCI-H460; 51.9 µM (inactive) in the assay with RXF 393; 51.1 µM (inactive) in the assay on NCI/ADR-RES. For the same compound, the GI50 was 38.7 µM (inactive) in the assay on MDA-N; 39.1 µM (inactive) in the assay on COLO 205; 30.3 µM (inactive) in the assay on UACC-62; 67.5 µM (inactive) in the assay on MOLT-4; 37.8 µM (inactive) in the assay on EKVX; > 100 µM (inactive) in the assay with OVCAR-5. The GI50 with CAKI-1 is 43 µM (inactive).
Regarding `C=C1CC[C@]2(C)[C@H](CC[C@@]34C[C@@H](CC[C@H]32)[C@@H](C(=O)O)C4)C1(C)C`, the GI50 with OVCAR-3 is > 12.5 µM (inactive); with LOX IMVI it was > 12.5 µM (inactive); in the assay with SNB-19, > 12.5 µM (inactive); in the assay with HCT-15, more than 12.5 µM; in the assay on HT-29 it was 5.35 µM (inactive); in the assay on 786-0 it was 7.83 µM (inactive). Besides, the GI50 is 7.28 µM (inactive) in the assay on UO-31; 5.22 µM (inactive) in the assay with A549; 5.19 µM (inactive) with NCI-H460; > 12.5 µM (inactive) with RXF 393; > 12.5 µM (inactive) in the assay with NCI/ADR-RES; > 12.5 µM (inactive) in the assay on MDA-N. In addition, the GI50 in the assay with COLO 205 was 4.54 µM (inactive); in the assay on UACC-62 it was > 12.5 µM (inactive); in the assay with MOLT-4, 6.17 µM (inactive); in the assay with EKVX, > 12.5 µM (inactive); in the assay with OVCAR-5 it was > 12.5 µM (inactive); with CAKI-1 it was > 12.5 µM (inactive).
For the compound `CC#CC(O)(C(=O)OCCCN(C)C)C1CCCCC1` (centres undefined), the GI50 in the assay on OVCAR-3 was > 100 µM (inactive); with LOX IMVI, > 100 µM (inactive); in the assay with SNB-19 it was > 100 µM (inactive); in the assay with HCT-15, more than 100 µM; with HT-29, > 100 µM (inactive); in the assay on 786-0, > 100 µM (inactive). Moreover, the GI50 with SNB-75, in the assay on UO-31, with A549, with SF-268, with NCI-H460 and with RXF 393 was > 100 µM (inactive) throughout. The GI50 with NCI/ADR-RES, in the assay on MDA-N, in the assay on COLO 205, with UACC-62, in the assay with MOLT-4 and with EKVX was > 100 µM (inactive) in each case. For the same compound, in the assay on OVCAR-5, the GI50 is > 100 µM (inactive).
As for `C=C(C)[C@@H]1CC[C@]2(COC(C)=O)CC[C@]3(C)[C@H](CC[C@@H]4[C@@]5(C)CC[C@H](OC(C)=O)C(C)(C)[C@@H]5CC[C@]43C)[C@@H]12` [BETULIN DIACETATE], the GI50 in the assay on OVCAR-3 was 3.01 µM (inactive); in the assay on LOX IMVI, > 50 µM (inactive); with SNB-19, > 50 µM (inactive); in the assay on HCT-15, more than 50 µM; in the assay on HT-29 it was > 50 µM (inactive); in the assay with 786-0, > 50 µM (inactive). Moreover, the GI50 in the assay on SNB-75 was > 50 µM (inactive); in the assay with UO-31 it was > 50 µM (inactive); in the assay on A549, > 50 µM (inactive); with RXF 393 it was 0.0385 µM (active); with NCI/ADR-RES, > 50 µM (inactive); in the assay on MDA-N, > 50 µM (inactive). Besides, the GI50 in the assay with COLO 205, with UACC-62 and in the assay with MOLT-4 was > 50 µM (inactive) in each case.
